The target in one test is T1, Sbv333-ATA (Streptomyces odorifer, UniProt A0A7Y6F089).
T1 construct: gene G6W59_16020; 6xHis-tagged, pETite vector, E. coli BL21(DE3) with GroES/GroEL, Ni-NTA (plus SEC for crystals); residues 1-459 described; dimer about 100 kDa by gel filtration; catalytic Lys289
The test is described as follows: glycine oxidase (GO) coupled assay; acetophenone formation at […] nm. Type of test: biochemical. The conditions noted are these: 2 mM amine, 50 mM HEPES pH 9.0, room temperature (GO assay).

Test [1] deals with Sbv333-ATA, (S)-selective amine transaminase from a Streptomyces strain (Streptomyces sp.). The experiment in a line: SEC; analytical gel filtration, single peak; methods describe a calibrated Superdex 200 pg HiLoad 16/600 column, 20 mM HEPES pH 9.0, 500 mM NaCl.

T1 sequence (A0A7Y6F089 entry or part of it): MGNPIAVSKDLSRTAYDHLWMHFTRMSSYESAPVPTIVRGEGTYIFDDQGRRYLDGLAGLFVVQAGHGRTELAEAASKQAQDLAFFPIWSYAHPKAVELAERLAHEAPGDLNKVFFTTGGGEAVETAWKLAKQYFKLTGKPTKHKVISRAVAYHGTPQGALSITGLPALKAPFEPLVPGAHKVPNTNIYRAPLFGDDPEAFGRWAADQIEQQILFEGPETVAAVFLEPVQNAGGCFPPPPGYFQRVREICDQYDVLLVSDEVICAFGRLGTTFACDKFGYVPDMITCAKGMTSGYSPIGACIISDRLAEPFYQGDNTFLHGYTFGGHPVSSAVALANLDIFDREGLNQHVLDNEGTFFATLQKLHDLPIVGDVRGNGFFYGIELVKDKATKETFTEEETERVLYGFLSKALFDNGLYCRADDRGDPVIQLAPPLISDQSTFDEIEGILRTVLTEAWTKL

Consider `C[C@H](N)c1ccccc1` [compound 1, (S)-methylbenzylamine], for which, on Sbv333-ATA, the “glycine oxidase (GO) coupled assay; acetophenone formation at 245 nm” value is on record as “The enzyme was active toward a diverse set of substrates, including (S)-methylbenzylamine ((S)-1)”. A word on the stoichiometry N: it is the number of molecules, sites or subunits per partner or assembly. For the molecule “Sbv333-ATA, (S)-selective amine transaminase from a Streptomyces strain (enzyme)”, the stoichiometry N in test [1] turned out to be 2.

These data come from PMC12343752, “Functional and structural insights into a thermostable (S)-selective amine transaminase and its improved substrate scope by protein engineering” (Applied Microbiology and Biotechnology, 2025).
